Experimental findings from patent EP4349409A1, “COMPOUNDS FOR THE MANAGEMENT OF CELL STEMNESS AND INVASION IN CANCER AND RELATED DISEASES” (Instituto Biomar S.A., priority 2022, dated 2024) are described below.

Usually IC50 stands for the concentration needed to halve the response being measured. A word on the MTD: it is the highest dose tested that stayed within the study's limit of toxicity. A high value points to better tolerability.

Data set [1] deals with P1-TP73 promoter. Description: P1-p73-Fluc-DsRed reporter screening of natural compounds in U373 cells. The conditions noted are these: U373, 8 µg/ml, 48 h after treatment. The format is cell-based, human. Here is the method:
The conventional GB cell line U373 was used to perform a low-throughput chemical screen to identify P1-TP73-promoter regulators from a panel of 51 natural compounds with novel chemical structures (BMT-1 to BMT-51). Cells were seeded on black microplates and 24 h later they were transfected with 1 µg of P1-p73-Fluc-DsRed plasmid using Lipofectamine 3000™ reagent (ThermoFisher) following the manufacturer's instructions. Six hours later, transfected cells were treated either with 8 µg/ml of any of the tested compounds or with the drugs used as first line glioblastoma treatment: the methylating agent temozolomide (TMZ) and the chloroethyl-derivative of nitrosourea carmustine (BCNU), or equivalent volumes of DMSO. […] The compound BMT18 was also found to have autofluorescence.

The test system of data set [2] is G144. Description: MTT-based cytotoxicity assay, G144. The format is cell-based, human. To be noted: for IC50: G144, MTT, 72 h. The protocol:
A dose-response analysis of BMT9 (concentrations ranging from 4.5 µM-18 µM), BCNU (from 150 µM-500 µM) and TMZ (350 µM-700 µM) was performed in two conventional glioblastoma cell lines (T98G, U373) and the GNS cell line G144 by MTT-based cytotoxicity assays (Figure 5A-D). Cells were seeded on p96-well plates and treated with the different compounds for 72 h. Then, the MTT reagent (3-(4,5-Dimethyl-2-thiazolyl)-2,5-diphenyl-2H-tetrazolium bromide diluted in PBS to a concentration of 1mg/ml), was added to each well to a final concentration of 0.33mg/ml, and incubated for 3 h at 37°C. After that, the media was removed, and formazan crystals were solubilized with DMSO. Absorbance was measured at 560 nm using a "Synergy HT" plate reader (Biotek). In the graphs, the Y axis represents the percentage of cell viability relative to non-treated cells. The IC50, when reached are marked by a rectangle. DMSO treatment had no effect on cell viability.
(§1) Previous studies have reported that the molecular signature of the GNSC G144 cell line corresponds to a 'proneural' subtype of GB with NSC features (Pollard et al., 2009; Danovi et al., 2013). Thus, to test BMT9 specificity we compared cellular viability when treating CD133-positive cells (either GNSCs or normal human fetal neural stem cells-NSC) versus CD133-negative human embryonic fibroblast (HEFs) (Figure 8A). MTT-based cytotoxicity assay (Figure 7B-D) were performed as previously described.
(§2) While the first line therapy of gliomas has proven its effectiveness and improved clinical outcomes, acquired chemoresistance to alkylating agents has been identified as a major cause of treatment failure (Sarkaria et al., 2008). In a murine model of GB, long-term treatment with subtoxic TMZ doses enriched the side population of cancer stem cells, increasing the tumor aggressiveness (Bleau et al., 2009). Thus, we generated TMZ-resistant G144-clones that were selected upon treatment with TMZ either at 500 µM or 700 µM for several months (R500 and R700, respectively). The obtained clones maintained CD133 stem marker expression (Figure 9A). We then analyzed BMT9 dose-dependent effect on cell viability, by MTT assay, comparing the resistant clones to parental cells.
(Tetrazolium dyes change colour on reduction, which living cells bring about.)

Data set [3] relates to G179. In words: MTT-based cytotoxicity assay, G179. In kind it is cell-based. To be noted: G179, 72 h after treatment.
Data set [4] concerns CD133. In words: CD133 stemness marker flow cytometry in G144 cells. To be noted: G144, 48 hours; BMT9 4.5-9 µM, TMZ 500 µM, BCNU 250 µM. The format is cell-based, human. Here is the method: Next, we asked if BMT9 treatment at IC50 could specifically affect the stemness of GNSC. To address this point, cells were seeded and treated 24 h later with BMT9 (4.5-9 µM), TMZ (500 µM) or BCNU (250 µM). After 48 hours of treatment, cells were collected and stained with a CD133 (stemness marker) antibody (AC133, Milyenty Biotec) or the corresponding Ig-isotype control. Flow cytometric analysis were performed with the previously mentioned equipment.

The test system of data set [5] is GNSC. In words: Immunostaining for Nestin, Tuj1 and GFAP (differentiation) in GNSC. In kind it is cell-based. To be noted: 4.5 µM. The protocol: Moreover, we asked whether BMT9, at IC50 concentration, induced differentiation of these GNSC. For these experiments, cells were seeded under proliferation conditions and treated with BMT9 at 4.5 µM for 72 h. Cells were fixed with 3.7% paraformaldehyde for 15 min and immunostained with Nestin, Tuj1 and GFAP specific antibodies. Samples were analyzed using a Zeiss LSM800 confocal microscopy. To quantify the percentage of neural (Tuj-1) (Figure 7D) and astrocytic (GFAP+) (Figure 7E) differentiated cells, positive cells for each marker were manually counted and compared with the total number of cells.

Data set [6] deals with normal human fetal neural stem cells-NSC. In words: Long term MTT viability, normal neural stem cells. In kind it is cell-based. To be noted: CD133-positive NSC, 1.125-4.5 µM. The protocol:
as §1

The test system of data set [7] is G144 R700. In words: MTT assay, TMZ-resistant clone G144 R700. The conditions noted are these: Homo sapiens, 72 hours. In kind it is cell-based.
Description: as §2

The nature of data set [8]: Maximum Tolerated Dose after intraperitoneal administration. To be noted: mouse, in vivo, ip; female C57BL/6 mice, single intraperitoneal dose, seven days. The protocol: (§3) The Maximum Tolerated Dose (MTD) and Pharmacokinetics (PK) of BMT9 were determined after intraperitoneal administration to female C57BL/6 (~25 g) mice.
C57BL/6 female mice (9-13 weeks in age) were administered intraperitoneally with a single dose of BMT9 at 35, 50, 75, 100 or 200 mg/Kg. Total of 3 animals were used for each independent serial sampling experiment. The compound was dissolved in an appropriate vehicle (Cremophor:EtOH:H20 1:1:8). Body weight, distress and survival were monitored 1, 2, 4 hours and 8 hours post-administration and every day during the whole observation period. The MTD was set on the dose below the first dose that caused severe loss of body weight (>20%) or death of one or more animals of a dose group seven days after treatment. The MTD of BMT9 was therefore set on about 140 mg/kg. The concentrations of BMT9 in plasma was determined at different times per duplicate using a previously validated analytical method. The compound was injected via i.p at 100 mg/kg. Total of 3 animals were used for each independent serial sampling experiment. Blood samples were collected at 5, 15, 30 min, 1, 4, 10, 24, and 48 hours from each animal via cardiac puncture; […] withdrawn at each time point. 25 microliters of blood sample were then used for quantitative bioanalysis by HPLC-MS/MS. […]

Data set [9] is described as follows: Pharmacokinetics in plasma after intraperitoneal administration. In kind it is in vivo. To be noted: female C57BL/6 mice, i.p. 100 mg/kg. The protocol: as §3
C57BL/6 female mice (9-13 weeks in age) were administered intraperitoneally with a single dose of BMT9 at 35, 50, 75, 100 or 200 mg/Kg. Total of 3 animals were used for each independent serial sampling experiment. The compound was dissolved in an appropriate vehicle (Cremophor:EtOH:H20 1:1:8). Body weight, distress and survival were monitored 1, 2, 4 hours and 8 hours post-administration and every day during the whole observation period. The MTD was set on the dose below the first dose that caused severe loss of body weight (>20%) or death of one or more animals of a dose group seven days after treatment. The MTD of BMT9 was therefore set on about […]. The concentrations of BMT9 in plasma was determined at different times per duplicate using a previously validated analytical method. The compound was injected via i.p at 100 mg/kg. Total of 3 animals were used for each independent serial sampling experiment. Blood samples were collected at 5, 15, 30 min, 1, 4, 10, 24, and 48 hours from each animal via cardiac puncture; […] withdrawn at each time point. 25 microliters of blood sample were then used for quantitative bioanalysis by HPLC-MS/MS. The fundamental pharmacokinetic parameters were obtained from the non-compartmental analysis using PK Solutions 2.0.2.

`C=C1C2CCC(C)(C3COc4c(C)c(OC)c5c(c4C3O)C(O)OC5=O)C1CCC2(C)C` (centres unmarked) [BMT9]: the “P1-TP73-promoter activity (fluorescence normalized to DMSO exposed cells)” value in [1] was “strongest and most reproducible repressive effect”. Moreover, the “pre-selection: modulatory effect of a 2-fold fluorescence increase or a 0.5-fold reduction” value in [1] (direction per compound not given) is “pre-selected”. Besides, the “concentration as low as which still reduced viability” value was determined as 2.25 µM in data set [2] (G144, 72 h after treatment) and 6.75 µM in [3]. The IC50 in data set [2] was 4.5 µM; in [2] (Homo sapiens) it was below 4.5 µM; in data set [7], 3.37 to 4.5 µM. For the same compound, the “cellular viability in long term culture” value in data set [2] (GNSC (G144, CD133-positive), 1.125-4.5 µM) is “stronger effect against GNSC”; in data set [6], “affected”. Moreover, the “CD133 expression levels (Mean Fluorescence Intensity)” value in [4] is listed as “significantly reduced”. For the same compound, in [4], the “percentage of CD133 positive cells” value is given as “significantly reduced”. Further, in data set [5] (72 h (data not shown)), the “expression of the stem cell marker Nestin” value is “reduced the expression of the stem cell marker Nestin”. In data set [5] (72 h, proliferating culture conditions), the “neural differentiation (Tuj1 and GFAP positive cells)” value is recorded as “induced neural differentiation”. For the same compound, the maximum tolerated dose (MTD) at 168 h in data set [8] was around 140 mg/kg. The “highest concentration in the plasma” value in data set [9] worked out at 7611 ng/mL. Moreover, the “time at which plasma concentration reached the control levels post-administration” value in data set [9] came out at 24 h. The “time of highest concentration in the plasma after injection” value in [9] came out at 4 h.
